The text below walks through data of the NIST ThermoML archive (doi:10.1021/je700492k).

For this data set the following is noted: 101.33 kPa, Liquid, Pycnometric method.

Numbers after ± are expanded uncertainties.

Consider `CC(=O)CC(C)=O` [2,4-pentanedione], for which the mass density amounted to 972.1 ± 0.9 kg/m3 (298.15 K), 954 ± 0.9 kg/m3 (313.15 K) and 939.3 ± 0.8 kg/m3 (328.15 K).

A word on the mass density: it is the mass of a sample divided by its volume.
